Literature values as cited in patent publication US20120309684A1, “CONJUGATES FOR DELIVERY OF BIOLOGICALLY ACTIVE COMPOUNDS” (ISIS INNOVATION LIMITED, priority 2009, published 2012).

How the values were obtained:
dystrophin protein = details: seven weekly doses at 100 mg/kg, systemic intravenous
[1] = test system: cardiac compared with skeletal muscle

Substance	restoration of dystrophin protein with naked PMO (dystrophin protein)	lower binding affinity for cardiac compared with skeletal muscle [1]
GGCCAAACCTCGGCTTACCTGAAAT (all phosphorodiamidate morpholino (PMO); Tested constructs carry cell-penetrating peptides (B, MSP) conjugated to PMO)	moderate restoration	
ASSLNIA (Sequence for inclusion in target-delivery peptide) [MSP]		2-3 fold
